The source of these data is US20100029755A1, “P-Glycoprotein inhibitor comprising octilonium bromide as an effective ingredient” (priority 2002, published 2010).

In data set [1] the test system is p-glycoprotein. The following applies: SD, rat, 1 h, pH 6.4.
The conditions of data set [2]: administered orally; cited from earlier work.
Data set [3] deals with p-glycoprotein. Conditions: SD, rat, 1 h, 10 μg/ml, pH 6.4.

Molecules are shown by their SMILES. Like-named read-outs stand apart in the source and are kept apart here.

Turning to `COc1cccc2c1C(=O)c1c(O)c3c(c(O)c1C2=O)C[C@@](O)(C(=O)CO)C[C@@H]3O[C@H]1C[C@H](N)[C@H](O)[C@H](C)O1` [doxorubicin], in data set [1] (50 μg/ml), the “absorbed amount of the doxorubicin” value amounted to 0.4 μg/g tissue and the “absorbed doxorubicin as % of the total applied amount” value turned out to be 0.12%.

As to `CCCCCCCCOc1ccccc1C(=O)Nc1ccc(C(=O)OCC[N+](C)(CC)CC)cc1` [octylonium bromide], in data set [2], the “fraction of octylonium bromide absorbed systemically” value is on record as 5% and the “fraction of octylonium bromide remaining in the gastrointestinal tract” value is listed as 95%. In addition, in data set [1] (200 μg/ml), the “absorbed amount of the doxorubicin” value is 11 μg/g tissue, the “absorbed doxorubicin as % of the total applied amount” value came out at 3.3% and the “increase of the amount of absorbed doxorubicin by octylonium bromide” value worked out at 28 folds. Also, in data set [3], the “absorbed rhodamine 123 as % of the total applied amount” value was 14.5%, the “amount of the absorbed rhodamine 123” value is recorded as 4.3 μg/g tissue and the “increase of the amount of absorbed rhodamine by octylonium bromide” value is 4.5 folds.
